Experimental data reported in publication PMC5545217 (Nature Communications, 2017).
Entries after “also recorded” stand apart in the source; their conditions may differ.

Target: D216V ATP-PRT (Mycobacterium tuberculosis, UniProt P9WMN1, D216V)
Type: biochemical

SMILES | Inhibition of D216V ATP-PRT | Activation of D216V ATP-PRT
N[C@@H](Cc1c[nH]cn1)C(=O)O [L-His, L-histidine, reference compound] | no longer inhibited by L-His; also recorded: did not change D216 V activity | 
N[C@@H](Cc1cccs1)C(=O)O [TIH, 3-(2-thienyl)-L-alanine] |  | still activated by TIH
